Several values for one entry are separate records, joined by “and”; a condition that tells them apart may be missing. Equal values may be shown once.
Experiments:
[1] = PAMPA test (skin permeability model); conditions: for permeation parameter CA(t)/CD(0) / retention factor R (membrane retention) / permeability coefficient log Pe: 70% silicone oil-30% IPM membrane, 7 h incubation, 100 μM in 5% DMSO phosphate buffer pH 7, triplicate mean; for Papp at 7 h, 100 μM: PAMPA, pH 7
Description: The study was performed in triplicate and the results are presented as mean values. After the PAMPA tests was performed, a HPLC method was used to measure the concentrations of the investigated corticosteroids: the initial concentration–CD(0) in the starting solution, the residual concentration–CD(t) in the donor compartment (7 h after incubation) and the transferred concentration–CA(t) in the acceptor compartment (7 h after incubation). The assay was performed using the previously described HPLC method with mobile phase modification for determination of standard corticosteroids. The mobile phase modification was introduced to achieve complete separation standard corticosteroids peak from DMSO peak, which was used as cosolvent. DMSO was used as cosolvent with the aim of increasing the corticosteroid C-21 esters’ solubility. DMSO is one of the earliest and most widely studied penetration enhancers for transdermal drug delivery systems.
On the basis of the initial (100 μM) and calculated residual and transferred concentrations according to peak area comparison at zero time t0, the retention factors–R and permeability coefficients–logPe of investigated corticosteroids were obtained.
Phosphate buffer (pH = 7) was prepared by dissolving NaH2PO4·H2O (1.167 g) and Na2HPO4·7H2O (3.093 g) in water (1000 mL) with the fixed total concentration of 20 mM. The 5% DMSO solution were prepared dissolving DMSO in phosphate buffer. The corticosteroid solutions were prepared dissolving the investigated corticosteroid standards as well as new synthesized corticosteroid C-21 esters in 5% DMSO solution. […] An aliquot of previously prepared mixture (3.5 mL, 7 mL silicone oil and 3 mL IPM) was transferred into a 10 mL volumetric flask, dissolved and fill up to mark with n-hexane.
Permeation experiments were carried out in hydrophobic PVDF 96-well filter plates (Millipore, Molsheim, France). […] Next, in each well of acceptor plate, 5% DMSO solution (400 μL) was transferred with an automatic pipette and covered by the donor plate, creating a PAMPA sandwich. In each well of the donor plate solutions of the tested corticosteroid in 5% DMSO solution (100 μM, 300 μL) was transferred by the use of an automatic pipette. Each substance was measured in triplicate at iso-pH conditions (the same pH value in donor and receptor compartment). The donor plate was covered to prevent evaporation and the whole system set up to interact with the vibratory mixer. After 7 h, PAMPA sandwich was removed from the mixer and vibration, and using the HPLC method the concentration of the investigated substances in the donor and receptor compartments were determined. The HPLC method used was as previously described but with some necessary modifications. A mobile phase of methanol–water (75:25 v/v) was used for analysis of corticosteroid C-21 esters, while the mobile phase methanol–water (50:50 v/v) was used for the analysis of unesterified corticosteroids to increase their retention time and prevent overlapping with the DMSO peak. Other HPLC parameters were as previously described. The concentrations of each tested corticosteroid in the appropriate time interval in the donor and acceptor compartments were calculated using the method of comparing the peak area of the initial concentration at zero time t0.
The values of permeability coefficients–logPe and retention factors–R of examined corticosteroids were calculated using equations (2) and (3). The retention factor, R can be defined as the mole fraction retained in the membrane and in the microplates (i.e., filters and plate materials): [drawing 1] (2) where CA(t)/CD(0) represents the amount of compound that reached the acceptor compartment after incubation time t (for VA = VD): […]

[2] = approximate logKp (permeability coefficient through human skin) calculated from logPe by equation (1); conditions: logKp = 1.34 logPe + 0.28, from PAMPA logPe
Excerpt: Ottaviani and coworkers predicted skin permeation of numerous compounds applying a new membrane (70% silicone oil and 30% IPM) in the PAMPA test and presented permeate classifications on the basis of available literature permeability coefficients through human skin, logKp.
The proposed equation for correlation between logKp and logPe for 31 investigated compounds was: […]

[3] = tested on: croton oil induced mice ear edema; conditions: 4 h after application, at ED50 of FA (28 μM); cited from earlier work

| Papp at 7 h, 100 μM [1] | logKp (approximate, calculated) [2] | permeation parameter CA(t)/CD(0) ([1]; listed as mometasone furoate) | retention factor R (membrane retention) ([1]; listed as mometasone furoate) | Structure (SMILES) | permeation parameter CA(t)/CD(0) [1] | retention factor R (membrane retention) [1] | permeability coefficient log Pe [1] | relative anti-inflammatory activity (reduction of mass edema) in comparison to FA (100%) [3] | permeate classification (groups I-III) from R versus CA(t)/CD(0) ([1]; relationship between retention factors and permeation parameters, Figure 2) |
| --- | --- | --- | --- | --- | --- | --- | --- | --- | --- |
| 9.77 ×10⁻⁶ cm/s | −6.43 | – | – | CC1(C)O[C@@H]2C[C@H]3[C@@H]4CCC5=CC(=O)C=C[C@]5(C)[C@@]4(F)[C@@H](O)C[C@]3(C)[C@]2(C(=O)CO)O1 [TA, triamcinolone acetonide, reference compound] | 10.8 ± 1.5% | 4.7 ± 2.3% | – | – | – |
| – | – | – | – | CCC(OC)C(=O)OCC(=O)C1(O)C(C)CC2C3CCC4=CC(=O)C=CC4(C)C3(F)C(O)CC21C (centres unmarked) [DEX-21-MB, dexamethasone 21-(2′-methoxybutyrate)] | 37.4 ± 1.5% | <1% | −4.58 ± 0.15 cm/s | – | – |
| – | – | – | – | C[C@]12CCC(=O)C=C1CC[C@@H]1[C@@H]2[C@@H](O)C[C@@]2(C)[C@H]1CC[C@]2(O)C(=O)CO [H, hydrocortisone, reference compound] | – | 1.5 ± 0.9% | – | – | – |
| – | – | – | – | CCC(OC)C(=O)OCC(=O)C12OC(C)(C)OC1CC1C3CCC4=CC(=O)C=CC4(C)C3(F)C(O)CC12C (centres unmarked) [TA-21-MB, triamcinolone acetonide 21-(2′-methoxybutyrate)] | 16.9 ± 2.0% | 39.3 ± 4.1% | −4.85 ± 0.23 cm/s | – | – |
| – | – | – | – | COC(C)C(=O)OCC(=O)C1(O)C(C)CC2C3CCC4=CC(=O)C=CC4(C)C3(F)C(O)CC21C (centres unmarked) [DEX-21-MP, dexamethasone 21-(2′-methoxypropionate)] | 23.8 ± 1.5% | <1% | −4.88 ± 0.17 cm/s | – | – |
| – | – | – | – | CCOC(C)C(=O)OCC(=O)C1(O)C(C)CC2C3CCC4=CC(=O)C=CC4(C)C3(F)C(O)CC21C (centres unmarked) [DEX-21-EP, dexamethasone 21-(2′-ethoxypropionate)] | 31.6 ± 0.6% | <1% | – | – | – |
| – | – | – | – | CCOC(C)C(=O)OCC(=O)[C@@]12OC(C)(C)O[C@@H]1C[C@H]1[C@@H]3C[C@H](F)C4=CC(=O)C=C[C@]4(C)[C@@]3(F)[C@@H](O)C[C@@]12C (some centres unmarked) [FA-21-EP, fluocinolone acetonide 21-(2′-ethoxypropionate)] | 22.2 ± 1.6% | 45.8 ± 4.1% | −4.52 ± 0.19 cm/s | less than 10% | – |
| – | – | – | – | CC(Oc1ccccc1)C(=O)OCC(=O)C12OC(C)(C)OC1CC1C3CCC4=CC(=O)C=CC4(C)C3(F)C(O)CC12C (centres unmarked) [TA-21-PhP, triamcinolone acetonide 21-(2′-phenoxypropionate)] | 27.1 ± 1.4% | 51.1 ± 3.8% | −4.07 ± 0.14 cm/s | – | – |
| – | – | – | – | CC(Oc1ccccc1)C(=O)OCC(=O)C12OC(C)(C)OC1CC1C3CC(F)C4=CC(=O)C=CC4(C)C3(F)C(O)CC12C (centres unmarked) [FA-21-PhP, fluocinolone acetonide 21-(2′-phenoxypropionate)] | 1.3 ± 0.6% | 71.9 ± 2.8% | −5.68 ± 0.15 cm/s | 65% | – |
| – | – | – | – | COC(C)C(=O)OCC(=O)[C@@]12OC(C)(C)O[C@@H]1C[C@H]1[C@@H]3C[C@H](F)C4=CC(=O)C=C[C@]4(C)[C@@]3(F)[C@@H](O)C[C@@]12C (some centres unmarked) [FA-21-MP, fluocinolone acetonide 21-(2′-methoxy-propionate)] | 23.1 ± 1.4% | 34.1 ± 3.5% | −4.64 ± 0.17 cm/s | 108.12% | – |
| – | – | – | – | CCOC(CC)C(=O)OCC(=O)C12OC(C)(C)OC1CC1C3CC(F)C4=CC(=O)C=CC4(C)C3(F)C(O)CC12C (centres unmarked) [FA-21-EB, fluocinolone acetonide 21-(2′-ethoxybutyrate)] | 7.2 ± 0.9% | 72.8 ± 2.6% | −4.82 ± 0.10 cm/s | 60% | – |
| 8.51 ×10⁻⁶ cm/s | −6.51 | – | – | CC(=O)OCC(=O)[C@@]1(O)CC[C@H]2[C@@H]3CCC4=CC(=O)CC[C@]4(C)[C@H]3[C@@H](O)C[C@@]21C [H-21-Ac, hydrocortisone acetate, reference compound] | 10% and 10.0 ± 1.7% | < 1% | – | – | – |
| – | – | – | – | CCOC(C)C(=O)OCC(=O)C12OC(C)(C)OC1CC1C3CCC4=CC(=O)C=CC4(C)C3(F)C(O)CC12C (centres unmarked) [TA-21-EP, triamcinolone acetonide 21-(2′-ethoxypropionate)] | 23.0 ± 1.8% | 32.4 ± 1.7% | −4.66 ± 0.15 cm/s | – | – |
| – | – | – | – | CC(Oc1ccccc1)C(=O)OCC(=O)C1(O)C(C)CC2C3CCC4=CC(=O)C=CC4(C)C3(F)C(O)CC21C (centres unmarked) [DEX-21-PhP, dexamethasone 21-(2′-phenoxypropionate)] | 4.1 ± 1.1% | 86.5 ± 4.2% | – | – | – |
| 5.5 ×10⁻⁶ cm/s | −6.77 | – | – | CC1(C)O[C@@H]2C[C@H]3[C@@H]4C[C@H](F)C5=CC(=O)C=C[C@]5(C)[C@@]4(F)[C@@H](O)C[C@]3(C)[C@]2(C(=O)CO)O1 [FA, fluocinolone acetonide, reference compound] | 6.7 ± 1.2% | <1% | – | 100% | – |
| – | – | – | – | CCOC(CC)C(=O)OCC(=O)C1(O)C(C)CC2C3CCC4=CC(=O)C=CC4(C)C3(F)C(O)CC21C (centres unmarked) [DEX-21-EB, dexamethasone 21-(2′-ethoxybutyrate)] | 33.4 ± 1.2% | 11.3 ± 3.5% | −4.58 ± 0.13 cm/s | – | – |
| – | – | – | – | CCOC(CC)C(=O)OCC(=O)C12OC(C)(C)OC1CC1C3CCC4=CC(=O)C=CC4(C)C3(F)C(O)CC12C (centres unmarked) [TA-21-EB, triamcinolone acetonide 21-(2′-ethoxybutyrate)] | 7.3 ± 1.6% | 70.1 ± 3.4% | −4.87 ± 0.21 cm/s | – | – |
| 79.4 ×10⁻⁶ cm/s | −5.21 | 7.7% | 81% | C[C@@H]1C[C@H]2[C@@H]3CCC4=CC(=O)C=C[C@]4(C)[C@@]3(Cl)[C@@H](O)C[C@]2(C)[C@@]1(OC(=O)c1ccco1)C(=O)CCl [MF, mometasone furoate, reference compound] | 7.7 ± 1.5% | 81.0 ± 2.9% | – | – | group III (having high membrane retention and low permeation (group III)) |
| – | – | – | – | CCC(OC)C(=O)OCC(=O)C12OC(C)(C)OC1CC1C3CC(F)C4=CC(=O)C=CC4(C)C3(F)C(O)CC12C (centres unmarked) [FA-21-MB, fluocinolone acetonide 21-(2′-methoxybutyrate)] | 18.0 ± 1.3% | 47.2 ± 3.4% | −4.65 ± 0.12 cm/s | – | – |
| – | – | – | – | COC(C)C(=O)OCC(=O)C12OC(C)(C)OC1CC1C3CCC4=CC(=O)C=CC4(C)C3(F)C(O)CC12C (centres unmarked) [TA-21-MP, triamcinolone acetonide 21-(2′-methoxypropionate)] | 38.1 ± 1.6% | 13.5 ± 4.1% | −4.45 ± 0.16 cm/s | – | – |

Source: PMC6268546, “A PAMPA Assay as Fast Predictive Model of Passive Human Skin Permeability of New Synthesized Corticosteroid C-21 Esters” (Molecules, 2012)
